row,SMILES,melting point [°C]
1,CCCc1cc2cc(O)c(Cl)c(Cl)c2s1,50 to 51
2,C[C@H](Nc1ncnc2[nH]cnc12)c1oc2ccc(Br)cc2c(=O)c1-c1ccccc1,151 to 154
3,Cc1[nH]c(C(=O)N2CCC(C(=O)NCC3CCCCC3)CC2)c(C)c1-c1nc2ccc(C(=O)c3ccccc3)cc2[nH]1,274 to 276
4,CCOC(=O)Cn1cc(F)cnc1=O,121
5,COC(=O)C1=Cc2cc(-c3ccc(N4CCOCC4)cc3)ccc2N(C=O)CC1,178 to 181
6,Cc1cncc(Oc2cccc(NC(=O)N3CCc4c(cnc5[nH]nc(Br)c45)C3)c2)n1,221 to 223
7,COc1cc(Cc2cnc(N)nc2N)cc(OC)c1N,209 to 210
8,CCOC(=O)c1c(CN2CCNCC2)nc2cc(OC)c(OC)cc2c1-c1ccc(OC)c(OC)c1,192 to 193
9,CCN1c2ccc(C#N)cc2N(CCCCS(=O)(=O)O)C1C (configuration not stated),> 260
10,CNc1cc(Oc2ccc3c(c2)OCCN3C(=O)Nc2ccc(C)c(C(F)(F)F)c2)ncn1,180 to 182
11,CCCCCCCCCCCCC(O)CNCCCCCCNCC(O)CCCCCCCCCCCC (configuration not stated),118 to 121
12,CN(C)S(=O)(=O)c1cc(-n2c(=O)cc(C(F)(F)F)[nH]c2=O)ccc1Cl,281 to 283
13,CCOC(Cc1c(N(C(C)=O)C(C)=O)nc(NC(C)=O)[nH]c1=O)OCC,128 to 130
14,N#CC1=CCCc2ccc(Br)cc21,113 to 115
15,CC(C)(C)c1cc2sccc2c(C(C)(C)C)c1O,107
16,CCCn1cc(C2CCC(=O)CC2)c2cc(C#N)ccc21,103 to 104
17,COc1cc(Nc2nccc(-c3ccc(NCCCN4CCN(C)CC4)nc3)n2)cc(OC)c1OC,183 to 184
18,Cc1oc(-c2ccccc2)nc1COc1cccc(COc2nn(Cc3ccccc3)cc2C=O)c1,131 to 132
19,CCC1(CC)c2cc(-c3ccc4c(c3)C(CC)(CC)c3cc(N(c5ccccc5)c5ccccc5)ccc3-4)ccc2-c2ccc(-c3nc4ccccc4s3)cc21,217 to 218
20,Cc1nc(C)c(Cl)c(NCc2ccc(Oc3ccc4ncc([N+](=O)[O-])n4n3)c(OCC3CC3)c2)n1,178 to 180
21,O=c1[nH]c2c(c3nc(-c4ccccc4F)cn13)CNCC2,> 310
22,CCOP(=O)(COS(=O)(=O)c1c(C)cccc1Cl)OCC,41 to 43
23,COc1ccccc1C1=C(C#N)C(c2cccc3nonc23)c2c[nH]nc2N1 (configuration not stated),180

row,SMILES,melting point [°C]
1,CCCOC(=O)C1=NN(c2ccccc2)C(C(=O)OCCC)=NN1c1ccccc1,82.5 to 83
2,CCc1c(Sc2cc(C)cc(C)c2)n(CC2=CC(CO)C(CO)C2)c(=O)[nH]c1=O (configuration not stated),156 to 157
3,CC1(C)CC(=O)c2c(SC(C)(C)C)sc(-c3cc[nH]n3)c2C1,220 to 222
4,COC(=O)c1ccccc1NC(=O)N(C)C,85 to 90
5,COc1ccc(-c2cccnc2)cc1,62 to 63
6,CNC(=O)CS(=O)(=O)Nc1c(F)cccc1Oc1nc(OC)cc(OC)n1,193 to 198
7,COc1cccc(NC(=O)NC2N=C(c3ccccc3)c3cccc(C)c3N(C)C2=O)c1 (configuration not stated),215 to 217
8,Cn1c(CCNC(=O)C(F)(F)F)cc2cccc(F)c21,108 to 110
9,C[C@H]1[C@H](c2ccccc2)OC(c2cc(Br)cc3c2OCC3)N1C (some centres not stated),83.5 to 85.5
10,CC(O)C1CCC2C3CCC4=CC(=O)CCC4(C)C3CCC12C (configuration not stated),163 to 166
11,CCOC(=O)c1cnc2c(N)c(Cl)c(F)cc2c1O,268 to 270
12,CSC1=NS(=O)(=O)CCCS1,91
13,CCOC(=O)C(=O)Nc1cc(C#N)c(C(C)=O)cc1[N+](=O)[O-],142 to 144
14,Cc1cc2cccc(N)c2cn1,175
15,Cn1ncnc1COc1nc2c(cc1-c1cccc(F)c1)nnn2-c1ccccc1F,143 to 145
16,CCOC(=O)c1cc2c(OCC3CO3)cccc2[nH]1 (configuration not stated),142 to 144
17,CCC(=O)c1cc(C2(c3cccc(-c4cccnc4F)c3)N=C(N)N(C)C2=O)cn1CC(F)(F)F (configuration not stated),108 to 110
18,O=C(Oc1ccccc1)N1CCC(Sc2ccncc2)CC1,102 to 104
19,COCC1CCCN1S(=O)(=O)c1ccc2c(c1)C(=O)C1=NCC3(CCCC3)CN12 (configuration not stated),171 to 172
20,"CCC(COC)Nc1c([N+](=O)[O-])cc(C)c(C)c1[N+](=O)[O-] (single isomer, unassigned; (-))",42.5 to 44
21,COC(=O)NC1=NCC(c2ccccc2)CN1C (configuration not stated),176 to 177
22,Cc1nc(N)ncc1-c1ccncc1,215 to 217
23,CCOC(=O)c1n[nH]c(C(=O)OCC)c1C(=O)c1ccc(Cl)cc1[N+](=O)[O-],168

row,SMILES,melting point [°C]
1,Cc1cc(C)cc(/C=C/c2ccc(O)cc2)c1,142
2,Cc1cc(Cl)ccc1N1CCCNC1=S,266 to 268
3,COc1ccc(C=O)c(OCC#N)c1,96 to 101
4,Cc1cccc2nc(C(S)c3ncnc4[nH]cnc34)n(-c3ccccc3Cl)c(=O)c12 (configuration not stated),228 to 230
5,COc1cc(OC)c2c(=O)cc(-c3ccc(C#N)cc3)oc2c1C1CCN(C)C1CO (configuration not stated),214 to 216
6,COc1ccccc1Oc1c(Cl)nc(-c2ncccn2)nc1OCCO,133 to 137
7,CCc1cc(CC)c(-c2c(OCCl)c(C)nn(C)c2=O)c(CC)c1,103 to 104
8,CCOC(=O)c1cnn2c(C3CC3)cc(-c3ccc(C(F)(F)F)cc3)cc12,117
9,CCCCn1c(=O)c2c(cnn2S(=O)(=O)CC)n(CCCC)c1=O,119 to 121
10,CC(C)COC(=O)CCC1NCC(=O)N1 (configuration not stated),50 to 52
11,Cn1nc(N)nc1NCCCOc1cccc(CN2CCCC2)c1,95 to 95.5
12,N=C(N)c1nc2c(s1)CCc1c-2sc2ncnn12,> 300
13,c1ccc2c3ccocc-3nc2c1,109 to 111
14,CCN1C=C(C(=O)O)C(=O)CC1c1cccnc1 (configuration not stated),197 to 199
15,CC[C@@H]1O[C@](C#CC2CC2)(C(F)(F)F)c2c(ccc3c2OCO3)NC1=O (relative stereo),201 to 202
16,Cc1cc(S(=O)(=O)NC2CCCCC2)c2c(C)ccc(C(C)C)cc1-2,108 to 109
17,CC(=O)NC[C@H]1CN(c2ccc(N3CCC(Cc4nnc(-c5ccccc5)o4)CC3)c(F)c2)C(=O)O1,199 to 200
18,COC(=O)c1sc2cc(OC)ccc2c1C,118 to 120
19,COc1cccc(-c2nc3n(n2)CCc2cc(OC)ccc2-3)c1,101 to 103
20,C=CCc1cc(COC(=O)C(C)C)ccc1C#CC1(O)CN2CCC1CC2 (configuration not stated),68
21,Nc1nc2ccccc2c2c1ncn2CCOCCCc1cncnc1,159 to 161

# Other lines, results leading:
row,melting point [°C],SMILES
1,83 to 84,Oc1ccc(C#Cc2ccccc2)cc1
2,218 to 220,CC(C)NC(=O)c1cccc(-c2ccnc3c(C(=O)c4cccs4)cnn23)c1
3,151 to 154,CC(C)Sc1c(C(N)=O)n(C)c2ccc(OCc3ccccc3)cc12
4,238 to 240,O=[N+]([O-])c1ccc(-c2cc(O)ccc2-c2ncnc(-c3ccccc3)n2)cc1
5,> 250,O=C(Nc1cccc2c(Cn3ccnc3)ccnc12)c1c(Cl)cccc1Cl
6,127 to 129,O=C(O)C(CC1CCCCC1)NS(=O)(=O)c1ccc(Cl)cc1 (racemic)
7,74 to 75,Nc1ccc(OCc2nc(Cl)ccc2Cl)cc1
8,150 to 152,NS(=O)(=O)c1ccc(C2=C(c3ccc(F)c(Cl)c3)CCC2)cc1
9,220 to 222,CC(C)(C)C(=O)OCN1C(=O)NC2(C1=O)C(=O)N(Cc1ccc(Br)cc1F)c1ccccc12 (configuration not stated)
10,98 to 100,CC(C)c1nc2ccccn2c(=O)c1-c1ccc(Cl)cc1
11,67 to 69,CC(=Cc1ccccc1)c1ccc2c(c1)SCCC2(C)C
12,155 to 157,O=C(Nc1ccccc1C(c1ccc(O)cc1)c1ccc(O)cc1)C12CC3CC(CC1C3)C2
13,228 to 231,COc1ccc(C(=O)Nc2ccc(F)c(F)c2)cc1NS(=O)(=O)c1cc(Cl)cc(Cl)c1
14,190,CC(=O)Nc1ccccc1C=C1c2ccccc2CCc2ccccc21
15,160 to 161,CC(NS(=O)(=O)c1ccc([N+](=O)[O-])cc1[N+](=O)[O-])c1ccccc1 (configuration not stated)
16,239 to 240,Cc1cccc(NC(=O)c2ccc(C(=O)N3Cc4cccn4Cc4ccccc43)cc2)c1C
17,162 to 163,CCOC(=O)Cc1ccc(NC(=O)C(COc2ccc(Cl)cc2)NS(=O)(=O)c2ccc(I)cc2)cc1 (racemic)
18,101 to 103,O=C(O)C(O)c1cccc(COc2ccccc2Cl)c1COc1ccccc1Cl (configuration not stated)
19,118 to 119,C[C@@H](n1cnn(-c2ccc(OCC(F)(F)F)cc2)c1=O)[C@@]1(c2ccc(F)cc2F)CO1
20,105,CCOC(=O)c1cc(OCc2ccccc2)c2ccc(Br)cc2c1
21,< 130,CCCCc1nn(-c2cc(NC(C)=O)ccc2Cl)c(=O)n1Cc1ccc(-c2cc(CCC)ccc2S(=O)(=O)NC(=O)OC(C)(C)C)cc1F
22,105 to 106,Cc1cc(S(=O)(=O)NCC(O)(CO)c2ccccc2)ccc1Cl (configuration not stated)
23,173 to 175,CC(C)(C)C(NC(=O)c1ccc(Cl)cc1)NC(=NC#N)NCc1ccc(Cl)cc1 (configuration not stated)
24,280 to 285,Cc1c(Cc2ccc([N+](=O)[O-])cc2)c(=O)oc2cc(O)cc(O)c12
25,243 to 245,O=C(NC1CCCCC1)c1ccc(CCN2CC=C(c3c[nH]c(-c4ccc(F)cc4)c3-c3ccncc3)CC2)cc1
26,128 to 130,N#CCC=Cc1ccc(Cc2ccc(C=CCC#N)cc2)cc1
27,135 to 136,Clc1ccccc1N=Cc1ccc(-c2nc3ccccn3n2)cc1
28,142 to 143,O=S(=O)(Nc1ccc2c(OCc3cccc(-c4cc(Cl)cc(Cl)c4)c3)cccc2c1)C(F)(F)F
29,191 to 192,Cc1c(NC(=O)c2ccc(OC[C@@H]3CCCO3)cc2)ccc2[nH]c(CNC3CCCC3)cc12
30,193,Cc1nn(Cc2ccccc2)cc1C(=O)Nc1ccc(N2CCC(N3CCOCC3)CC2)c(C#N)c1

# Reference: a melting point compilation (Tetko et al.; mined from patent text by program, amines drawn as free bases though some values may be those of a salt)
